Measured values as given in ChEMBL document CHEMBL4804284.
Active and inactive are the calls of the source. No cut-off for these calls is given here.

Legend:
[1] = molecular target: Inhibitor of nuclear factor kappa-B kinase subunit epsilon (Homo sapiens) (UniProt Q14164); experiment: Inhibition of DNA-tagged human IKK-epsilon assessed as percent of control at 50000 nM by qPCR analysis relative to control; design: scale not given: the % may be the effect or the level left
[2] = molecular target: Tyrosine-protein kinase Fyn (Homo sapiens) (UniProt P06241); experiment: Inhibition of DNA-tagged human FYN assessed as percent of control at 50000 nM by qPCR analysis relative to control; design: scale not given: the % may be the effect or the level left
[3] = tested on: Receptor-type tyrosine-protein kinase FLT3 (Homo sapiens), P36888 [UNDEFINED MUTATION]; experiment: Inhibition of DNA-tagged human FLT3 ITD mutant assessed as percent of control at 50000 nM by qPCR analysis relative to control; design: scale not given: the % may be the effect or the level left
[4] = molecular target: Receptor-type tyrosine-protein kinase FLT3 (Homo sapiens) (UniProt P36888); experiment: Inhibition of DNA-tagged human FLT3 assessed as percent of control at 50000 nM by qPCR analysis relative to control; design: scale not given: the % may be the effect or the level left
[5] = molecular target: Vascular endothelial growth factor receptor 1 (Homo sapiens) (UniProt P17948); experiment: Inhibition of DNA-tagged human FLT1 assessed as percent of control at 50000 nM by qPCR analysis relative to control; design: scale not given: the % may be the effect or the level left
[6] = molecular target: Eukaryotic translation initiation factor 2-alpha kinase 1 (Homo sapiens) (UniProt Q9BQI3); experiment: Inhibition of DNA-tagged human EIF2AK1 assessed as percent of control at 50000 nM by qPCR analysis relative to control; design: scale not given: the % may be the effect or the level left
[7] = molecular target: Mitogen-activated protein kinase kinase kinase 12 (Homo sapiens) (UniProt Q12852); experiment: Inhibition of DNA-tagged human DLK assessed as percent of control at 50000 nM by qPCR analysis relative to control; design: scale not given: the % may be the effect or the level left
[8] = molecular target: Serine/threonine-protein kinase DCLK2 (Homo sapiens) (UniProt Q8N568); experiment: Inhibition of DNA-tagged human DCAMKL2 assessed as percent of control at 50000 nM by qPCR analysis relative to control; design: scale not given: the % may be the effect or the level left
[9] = molecular target: Cyclin-dependent kinase-like 3 (Homo sapiens) (UniProt Q8IVW4); experiment: Inhibition of DNA-tagged human CDKL3 assessed as percent of control at 50000 nM by qPCR analysis relative to control; design: scale not given: the % may be the effect or the level left
[10] = molecular target: Cyclin-dependent kinase 8 (Homo sapiens) (UniProt P49336); experiment: Inhibition of DNA-tagged human CDK8 assessed as percent of control at 50000 nM by qPCR analysis relative to control; design: scale not given: the % may be the effect or the level left
[11] = molecular target: Cyclin-dependent kinase 5 (Homo sapiens) (UniProt Q00535); experiment: Inhibition of DNA-tagged human CDK5 assessed as percent of control at 50000 nM by qPCR analysis relative to control; design: scale not given: the % may be the effect or the level left
[12] = molecular target: Cyclin-dependent kinase 11B (Homo sapiens) (UniProt P21127); experiment: Inhibition of DNA-tagged human CDC2L1 assessed as percent of control at 50000 nM by qPCR analysis relative to control; design: scale not given: the % may be the effect or the level left
U-266 = experiment: Cytotoxicity against human U-266 cells at 0.1-100 uM assessed as decrease in cell viability relative to control; assay type: functional, cell-based
[13] = molecular target: Mitogen-activated protein kinase kinase kinase 2 (Homo sapiens) (UniProt Q9Y2U5); experiment: Inhibition of DNA-tagged human MAP3K2 assessed as percent of control at 50000 nM by qPCR analysis relative to control; design: scale not given: the % may be the effect or the level left
[14] = molecular target: Microtubule-associated serine/threonine-protein kinase 1 (Homo sapiens) (UniProt Q9Y2H9); experiment: Inhibition of DNA-tagged human MAST1 assessed as percent of control at 50000 nM by qPCR analysis relative to control; design: scale not given: the % may be the effect or the level left
[15] = molecular target: Dual specificity mitogen-activated protein kinase kinase 3 (Homo sapiens) (UniProt P46734); experiment: Inhibition of DNA-tagged human MEK3 assessed as percent of control at 50000 nM by qPCR analysis relative to control; design: scale not given: the % may be the effect or the level left
[16] = tested on: Hepatocyte growth factor receptor (Homo sapiens), P08581 [M1250T]; experiment: Inhibition of DNA-tagged human MET M1250T mutant assessed as percent of control at 50000 nM by qPCR analysis relative to control; design: scale not given: the % may be the effect or the level left
[17] = molecular target: Myosin light chain kinase family member 4 (Homo sapiens) (UniProt Q86YV6); experiment: Inhibition of DNA-tagged human MYLK4 assessed as percent of control at 50000 nM by qPCR analysis relative to control; design: scale not given: the % may be the effect or the level left
[18] = molecular target: Serine/threonine-protein kinase Nek6 (Homo sapiens) (UniProt Q9HC98); experiment: Inhibition of DNA-tagged human NEK6 assessed as percent of control at 50000 nM by qPCR analysis relative to control; design: scale not given: the % may be the effect or the level left
[19] = molecular target: Platelet-derived growth factor receptor alpha (Homo sapiens) (UniProt P16234); experiment: Inhibition of DNA-tagged human PDGFRA assessed as percent of control at 50000 nM by qPCR analysis relative to control; design: scale not given: the % may be the effect or the level left
[20] = molecular target: Cyclin-dependent kinase 15 (Homo sapiens) (UniProt Q96Q40); experiment: Inhibition of DNA-tagged human PFTAIRE2 assessed as percent of control at 50000 nM by qPCR analysis relative to control; design: scale not given: the % may be the effect or the level left
[21] = molecular target: Protein kinase C delta type (Homo sapiens) (UniProt Q05655); experiment: Inhibition of DNA-tagged human PRKCD assessed as percent of control at 50000 nM by qPCR analysis relative to control; design: scale not given: the % may be the effect or the level left
[22] = molecular target: Protein kinase C eta type (Homo sapiens) (UniProt P24723); experiment: Inhibition of DNA-tagged human PRKCH assessed as percent of control at 50000 nM by qPCR analysis relative to control; design: scale not given: the % may be the effect or the level left
[23] = molecular target: Serine/threonine-protein kinase D3 (Homo sapiens) (UniProt O94806); experiment: Inhibition of DNA-tagged human PRKD3 assessed as percent of control at 50000 nM by qPCR analysis relative to control; design: scale not given: the % may be the effect or the level left
[24] = molecular target: cGMP-dependent protein kinase 2 (Homo sapiens) (UniProt Q13237); experiment: Inhibition of DNA-tagged human PRKG2 assessed as percent of control at 50000 nM by qPCR analysis relative to control; design: scale not given: the % may be the effect or the level left
[25] = molecular target: RAF proto-oncogene serine/threonine-protein kinase (Homo sapiens) (UniProt P04049); experiment: Inhibition of DNA-tagged human RAF1 assessed as percent of control at 50000 nM by qPCR analysis relative to control; design: scale not given: the % may be the effect or the level left
[26] = molecular target: Serine/threonine-protein kinase 33 (Homo sapiens) (UniProt Q9BYT3); experiment: Inhibition of DNA-tagged human STK33 assessed as percent of control at 50000 nM by qPCR analysis relative to control; design: scale not given: the % may be the effect or the level left
[27] = molecular target: Tyrosine-protein kinase Tec (Homo sapiens) (UniProt P42680); experiment: Inhibition of DNA-tagged human TEC assessed as percent of control at 50000 nM by qPCR analysis relative to control; design: scale not given: the % may be the effect or the level left
[28] = molecular target: Angiopoietin-1 receptor (Homo sapiens) (UniProt Q02763); experiment: Inhibition of DNA-tagged human TIE2 assessed as percent of control at 50000 nM by qPCR analysis relative to control; design: scale not given: the % may be the effect or the level left
[29] = molecular target: Mitogen-activated protein kinase kinase kinase 20 (Homo sapiens) (UniProt Q9NYL2); experiment: Inhibition of DNA-tagged human ZAK assessed as percent of control at 50000 nM by qPCR analysis relative to control; design: scale not given: the % may be the effect or the level left

Chain of Cyclin-dependent kinase 11B (Homo sapiens) (P21127 whole entry): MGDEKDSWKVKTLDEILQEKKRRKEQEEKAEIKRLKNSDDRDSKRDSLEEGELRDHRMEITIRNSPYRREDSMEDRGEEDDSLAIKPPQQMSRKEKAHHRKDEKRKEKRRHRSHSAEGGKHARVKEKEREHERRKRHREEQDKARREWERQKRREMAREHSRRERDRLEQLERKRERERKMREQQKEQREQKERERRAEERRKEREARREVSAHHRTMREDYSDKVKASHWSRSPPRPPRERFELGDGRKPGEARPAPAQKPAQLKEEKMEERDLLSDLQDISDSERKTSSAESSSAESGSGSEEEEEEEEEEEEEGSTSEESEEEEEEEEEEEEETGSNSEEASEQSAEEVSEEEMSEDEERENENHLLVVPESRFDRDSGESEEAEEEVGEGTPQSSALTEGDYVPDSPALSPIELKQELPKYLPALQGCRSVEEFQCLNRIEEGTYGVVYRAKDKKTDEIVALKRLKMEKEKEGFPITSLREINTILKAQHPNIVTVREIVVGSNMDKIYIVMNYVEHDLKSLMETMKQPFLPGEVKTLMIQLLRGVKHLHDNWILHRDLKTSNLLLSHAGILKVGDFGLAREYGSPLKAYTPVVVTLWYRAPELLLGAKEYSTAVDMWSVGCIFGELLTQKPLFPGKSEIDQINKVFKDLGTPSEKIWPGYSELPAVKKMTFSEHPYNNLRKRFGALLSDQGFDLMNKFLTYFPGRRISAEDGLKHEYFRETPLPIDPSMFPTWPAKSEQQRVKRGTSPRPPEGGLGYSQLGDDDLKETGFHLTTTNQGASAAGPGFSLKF
Chain of Inhibitor of nuclear factor kappa-B kinase subunit epsilon (Homo sapiens) (Q14164 whole entry): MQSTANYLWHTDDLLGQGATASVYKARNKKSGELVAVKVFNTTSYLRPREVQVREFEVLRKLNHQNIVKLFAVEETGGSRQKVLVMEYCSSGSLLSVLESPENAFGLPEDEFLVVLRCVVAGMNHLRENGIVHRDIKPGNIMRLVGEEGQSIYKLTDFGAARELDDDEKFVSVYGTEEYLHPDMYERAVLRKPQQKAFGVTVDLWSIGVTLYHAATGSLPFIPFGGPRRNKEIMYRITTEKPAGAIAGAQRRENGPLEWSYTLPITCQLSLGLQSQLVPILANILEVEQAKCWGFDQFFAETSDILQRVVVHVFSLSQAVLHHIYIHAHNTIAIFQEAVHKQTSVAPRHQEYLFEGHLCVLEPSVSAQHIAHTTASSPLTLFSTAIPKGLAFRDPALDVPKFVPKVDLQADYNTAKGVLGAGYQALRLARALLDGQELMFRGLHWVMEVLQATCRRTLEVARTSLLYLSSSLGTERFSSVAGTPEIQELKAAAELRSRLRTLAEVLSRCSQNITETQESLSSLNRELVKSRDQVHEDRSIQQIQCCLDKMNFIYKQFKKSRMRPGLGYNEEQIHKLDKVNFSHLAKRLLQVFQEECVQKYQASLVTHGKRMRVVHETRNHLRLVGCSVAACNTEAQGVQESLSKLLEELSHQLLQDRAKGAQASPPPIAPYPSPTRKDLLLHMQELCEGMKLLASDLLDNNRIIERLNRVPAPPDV
Chain of Eukaryotic translation initiation factor 2-alpha kinase 1 (Homo sapiens) (Q9BQI3 whole entry): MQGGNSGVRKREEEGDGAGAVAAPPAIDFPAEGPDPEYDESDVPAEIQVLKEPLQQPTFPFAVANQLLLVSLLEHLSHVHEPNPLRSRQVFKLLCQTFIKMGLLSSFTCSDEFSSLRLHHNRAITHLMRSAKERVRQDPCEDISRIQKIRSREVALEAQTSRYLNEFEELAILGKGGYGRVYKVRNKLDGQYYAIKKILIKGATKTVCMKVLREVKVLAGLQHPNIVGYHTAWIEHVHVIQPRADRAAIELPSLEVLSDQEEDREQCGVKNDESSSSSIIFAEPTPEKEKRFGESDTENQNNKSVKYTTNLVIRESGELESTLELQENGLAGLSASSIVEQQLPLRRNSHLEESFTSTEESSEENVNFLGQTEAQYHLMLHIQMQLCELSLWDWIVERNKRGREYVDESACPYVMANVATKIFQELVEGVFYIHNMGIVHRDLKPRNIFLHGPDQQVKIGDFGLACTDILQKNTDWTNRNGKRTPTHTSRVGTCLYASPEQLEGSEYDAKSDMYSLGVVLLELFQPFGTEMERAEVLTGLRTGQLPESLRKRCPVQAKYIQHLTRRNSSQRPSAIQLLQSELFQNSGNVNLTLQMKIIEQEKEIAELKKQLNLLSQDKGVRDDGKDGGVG
Chain of Serine/threonine-protein kinase D3 (Homo sapiens) (O94806 whole entry): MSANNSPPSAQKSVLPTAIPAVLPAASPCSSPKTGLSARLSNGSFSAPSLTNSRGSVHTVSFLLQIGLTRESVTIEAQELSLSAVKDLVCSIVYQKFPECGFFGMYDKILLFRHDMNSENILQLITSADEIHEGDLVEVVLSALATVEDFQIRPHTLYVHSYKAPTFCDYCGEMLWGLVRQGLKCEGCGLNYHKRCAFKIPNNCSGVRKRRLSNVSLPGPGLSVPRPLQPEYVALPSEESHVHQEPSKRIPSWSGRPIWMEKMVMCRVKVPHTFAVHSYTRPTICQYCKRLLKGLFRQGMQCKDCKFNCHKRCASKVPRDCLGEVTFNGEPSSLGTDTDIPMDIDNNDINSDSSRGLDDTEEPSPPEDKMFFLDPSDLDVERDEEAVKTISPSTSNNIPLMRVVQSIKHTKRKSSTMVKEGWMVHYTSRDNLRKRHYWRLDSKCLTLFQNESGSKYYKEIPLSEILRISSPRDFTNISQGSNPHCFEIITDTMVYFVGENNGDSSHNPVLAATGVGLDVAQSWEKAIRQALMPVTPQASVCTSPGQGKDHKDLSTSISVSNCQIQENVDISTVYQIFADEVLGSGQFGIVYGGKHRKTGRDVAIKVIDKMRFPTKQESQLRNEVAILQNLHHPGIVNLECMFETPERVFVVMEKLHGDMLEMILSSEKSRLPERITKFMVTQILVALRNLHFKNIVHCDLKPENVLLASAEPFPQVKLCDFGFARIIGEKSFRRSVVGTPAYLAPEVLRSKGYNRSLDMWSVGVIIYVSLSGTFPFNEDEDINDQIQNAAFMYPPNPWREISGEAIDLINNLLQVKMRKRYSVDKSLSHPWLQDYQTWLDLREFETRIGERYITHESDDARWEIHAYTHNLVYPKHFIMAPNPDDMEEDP
Chain of Mitogen-activated protein kinase kinase kinase 2 (Homo sapiens) (Q9Y2U5 whole entry): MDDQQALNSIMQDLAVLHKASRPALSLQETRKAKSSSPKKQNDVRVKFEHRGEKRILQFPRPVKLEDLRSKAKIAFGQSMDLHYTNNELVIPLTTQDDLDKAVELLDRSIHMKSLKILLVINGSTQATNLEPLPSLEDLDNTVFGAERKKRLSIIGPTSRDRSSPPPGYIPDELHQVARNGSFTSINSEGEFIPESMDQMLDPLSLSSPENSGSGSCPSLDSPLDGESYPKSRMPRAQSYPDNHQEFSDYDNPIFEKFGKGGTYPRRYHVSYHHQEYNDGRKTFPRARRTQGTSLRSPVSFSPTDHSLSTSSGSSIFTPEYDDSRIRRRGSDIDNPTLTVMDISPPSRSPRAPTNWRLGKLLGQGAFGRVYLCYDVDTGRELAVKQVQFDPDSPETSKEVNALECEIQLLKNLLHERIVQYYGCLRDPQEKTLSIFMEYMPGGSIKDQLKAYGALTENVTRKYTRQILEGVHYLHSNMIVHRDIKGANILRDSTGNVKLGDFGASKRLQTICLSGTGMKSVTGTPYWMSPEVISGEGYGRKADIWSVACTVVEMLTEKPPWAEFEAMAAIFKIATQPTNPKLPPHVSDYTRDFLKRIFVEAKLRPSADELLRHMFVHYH
Chain of Protein kinase C eta type (Homo sapiens) (P24723 whole entry): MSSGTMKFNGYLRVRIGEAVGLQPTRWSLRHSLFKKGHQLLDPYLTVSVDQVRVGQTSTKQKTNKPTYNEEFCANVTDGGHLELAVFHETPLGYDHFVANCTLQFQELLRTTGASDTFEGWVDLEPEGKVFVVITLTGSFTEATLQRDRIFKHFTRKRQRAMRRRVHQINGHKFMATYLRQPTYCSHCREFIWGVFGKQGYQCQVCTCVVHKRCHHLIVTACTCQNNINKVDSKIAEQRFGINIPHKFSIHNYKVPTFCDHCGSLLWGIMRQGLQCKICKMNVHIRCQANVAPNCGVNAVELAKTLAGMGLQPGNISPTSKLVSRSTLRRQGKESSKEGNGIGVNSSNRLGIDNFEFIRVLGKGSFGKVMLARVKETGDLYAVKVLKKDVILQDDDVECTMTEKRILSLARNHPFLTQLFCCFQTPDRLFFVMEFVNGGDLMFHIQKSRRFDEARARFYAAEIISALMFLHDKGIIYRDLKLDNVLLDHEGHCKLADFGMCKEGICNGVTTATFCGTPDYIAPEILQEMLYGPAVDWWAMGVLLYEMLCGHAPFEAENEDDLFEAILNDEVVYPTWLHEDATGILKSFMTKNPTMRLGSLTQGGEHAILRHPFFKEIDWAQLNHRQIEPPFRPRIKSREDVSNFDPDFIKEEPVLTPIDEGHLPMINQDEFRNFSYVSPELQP
Chain of Cyclin-dependent kinase 5 (Homo sapiens) (Q00535 whole entry, looked up): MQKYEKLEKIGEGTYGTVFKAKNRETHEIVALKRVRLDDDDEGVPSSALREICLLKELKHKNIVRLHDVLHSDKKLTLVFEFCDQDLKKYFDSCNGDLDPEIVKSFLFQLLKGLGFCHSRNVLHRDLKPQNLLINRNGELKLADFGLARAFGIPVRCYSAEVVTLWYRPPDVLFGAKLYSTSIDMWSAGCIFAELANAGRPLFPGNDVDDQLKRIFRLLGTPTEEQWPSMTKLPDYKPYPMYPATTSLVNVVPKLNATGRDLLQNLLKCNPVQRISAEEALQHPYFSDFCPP
Chain of Dual specificity mitogen-activated protein kinase kinase 3 (Homo sapiens) (P46734 whole entry): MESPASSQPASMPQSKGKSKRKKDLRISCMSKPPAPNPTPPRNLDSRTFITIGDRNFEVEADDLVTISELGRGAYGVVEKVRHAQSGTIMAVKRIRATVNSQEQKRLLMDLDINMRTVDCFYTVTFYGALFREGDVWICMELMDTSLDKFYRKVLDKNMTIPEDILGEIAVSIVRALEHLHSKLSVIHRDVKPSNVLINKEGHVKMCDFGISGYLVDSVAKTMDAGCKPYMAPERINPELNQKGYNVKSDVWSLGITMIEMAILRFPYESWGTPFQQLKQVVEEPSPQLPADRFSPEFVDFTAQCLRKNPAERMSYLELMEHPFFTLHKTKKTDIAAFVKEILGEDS

CN1C(=O)/C(=C2/C(=O)Nc3ccccc32)c2ccccc21
Activity [1]: 100% | Activity [2]: 100% | Activity [3]: 76% | Activity [4]: 79% | Activity [5]: 93% | Activity [6]: 64% | Activity [7]: 100% | Activity [8]: 93% | Activity [9]: 100% | Activity [10]: 100% | Activity [11]: 100% | Activity [12]: 87% | Activity (U-266): Active | Activity [13]: 99% | Activity [14]: 85% | Activity [15]: 72% | Activity [16]: 80% | Activity [17]: 87% | Activity [18]: 81% | Activity [19]: 85% | Activity [20]: 88% | Activity [21]: 100% | Activity [22]: 100% | Activity [23]: 94% | Activity [24]: 94% | Activity [25]: 100% | Activity [26]: 100% | Activity [27]: 100% | Activity [28]: 100% | Activity [29]: 80%
